# From ChEMBL document CHEMBL5113468, “Design, synthesis, and biological evaluation of novel double-winged galloyl derivatives as HIV-1 RNase H inhibitors” (Eur J Med Chem, 2022)
# Columns and labels:
# [1] = target: Human immunodeficiency virus type 1 reverse transcriptase (Human immunodeficiency virus 1, UniProt Q72547); experiment: (§1) Inhibition of wild-type recombinant HIV-1 group M subtype B BH10 reverse transcriptase RNase-associated RNase H activity expressed in Escherichia coli XL1 blue using 32P-labeled 5'-UUUUUUUUUAGGAUACAUAUGGUUAAAGUAU-3'/5'-ATACTTTAACCATATGTATCC-3' RNA/DNA template-primer as substrate preincubated for 5 mins followed by substrate addition and measured after 15 mins by phosphorimaging analysis
# [2] = tested on: Human immunodeficiency virus 1; experiment: Antiviral activity against HIV1 3B infected in human MT4 cells assessed as protection against virus-induced cytopathic effect incubated for 5 days by MTT assay; type: functional, organism-based; conditions: Human immunodeficiency virus 1, 3B, MT4, 120 h
# [3] = tested on: Human immunodeficiency virus 2; experiment: Antiviral activity against HIV2 ROD infected in human MT4 cells assessed as protection against virus-induced cytopathic effect incubated for 5 days by MTT assay; type: functional, organism-based; conditions: Human immunodeficiency virus 2, ROD, MT4, 120 h
# [4] = Cytotoxicity against human MT4 cells assessed as reduction in cell viability measured after 5 days by MTT assay; type: toxicity, cell-based; conditions: time 5 day
# [5] = target: Human immunodeficiency virus type 1 reverse transcriptase (Human immunodeficiency virus 1) (UniProt Q72547); experiment: as §1, with “blue at 100 uM” for “blue”, “5'-[…]-3'/5'-[…]-3'” for “5'-UUUUUUUUUAGGAUACAUAUGGUUAAAGUAU-3'/5'-ATACTTTAACCATATGTATCC-3'”, “analysis relative to control” for “analysis”; conditions: time 20.0 min
# [6] = Apparent permeability across apical to basolateral side in human Caco-2 cells at 2 uM measured after 2 hrs by LC-MS/MS analysis; type: ADME, cell-based
# [7] = target: Human immunodeficiency virus type 1 reverse transcriptase (Human immunodeficiency virus 1) (UniProt Q72547); experiment: Potency index, ratio of beta-thujaplicinol IC50 to test compound IC50 for inhibition of wild-type recombinant HIV-1 group M subtype B BH10 reverse transcriptase RNase-associated RNase H activity expressed in Escherichia coli XL1 blue
Structure (SMILES),IC50 [1],inhibition [5],"Papp A→B at 2 h, 2 µM [6]",Ratio IC50 [7],EC50 [2],EC50 [3],CC50 at 120 h [4]
Nc1ccc(S(=O)(=O)N2CCN(C(=O)c3cc(O)c(O)c(O)c3)C(C(=O)NCc3ccc(-c4ccccc4)cc3)C2)cc1 (centres undefined),> 100 µM,47.6%,–,–,> 207 µM,> 207 µM,207 µM
N#Cc1ccc(S(=O)(=O)N2CCN(C(=O)c3cc(O)c(O)c(O)c3)C(C(=O)Nc3ccccc3)C2)cc1 (centres undefined),> 20 µM,60.6%,–,–,> 130 µM,> 130 µM,130 µM
COCCc1ccc(OCC(O)CNC(C)C)cc1 (centres undefined) [METOPROLOL],–,–,< 0.48 ×10⁻⁶ cm/s,–,–,–,–
COc1ccc(CNC(=O)C2CN(S(=O)(=O)c3ccc(C#N)cc3)CCN2C(=O)c2cc(O)c(O)c(O)c2)cc1 (centres undefined),> 10 µM,81.4%,–,–,> 21.4 µM,> 21.4 µM,21.4 µM
Nc1ccn([C@@H]2CS[C@H](CO)O2)c(=O)n1 [LAMIVUDINE],–,–,–,–,–,–,> 87.3 µM
Nc1ccc(S(=O)(=O)N2CCN(C(=O)c3cc(O)c(O)c(O)c3)CC2C(=O)NCc2cccs2)cc1 (centres undefined),> 100 µM,39.6%,–,–,> 235 µM,> 235 µM,235 µM
CN(C(=O)C1CN(S(=O)(=O)c2ccc(N)cc2)CCN1C(=O)c1cc(O)c(O)c(O)c1)c1ccccc1 (centres undefined),0.99 µM,–,–,–,> 237 µM,> 237 µM,237 µM
Cc1ccnc2c1NC(=O)c1cccnc1N2C1CC1 [NEVIRAPINE],–,–,–,–,0.17 µM,–,> 15 µM
N#Cc1ccc(S(=O)(=O)N2CCN(C(=O)c3cc(O)c(O)c(O)c3)C(C(=O)NCc3ccco3)C2)cc1 (centres undefined),> 20 µM,57.1%,–,–,> 108 µM,> 108 µM,108 µM
CN(C(=O)C1CN(C(=O)c2cc(O)c(O)c(O)c2)CCN1S(=O)(=O)c1ccc(N)cc1)c1ccccc1 (centres undefined),1.78 µM,–,–,–,> 135 µM,> 135 µM,135 µM
Nc1ccc(S(=O)(=O)N2CCN(C(=O)c3cc(O)c(O)c(O)c3)C(C(=O)NCc3cccs3)C2)cc1 (centres undefined),> 100 µM,45%,–,–,> 235 µM,> 167 µM,167 µM
CC(C)c1ccc(O)c(=O)c(O)c1 [BETA-THUJAPLICINOL],–,–,–,–,> 2.5 µM,> 2.5 µM,–
N#Cc1ccc(S(=O)(=O)N2CCN(C(=O)c3cc(O)c(O)c(O)c3)C(C(=O)NCc3ccc4ccccc4c3)C2)cc1 (centres undefined),> 20 µM,71.9%,–,–,> 213 µM,> 213 µM,213 µM

# More lines, in order of falling IC50 [1], values ahead:
IC50 [1],inhibition [5],"Papp A→B at 2 h, 2 µM [6]",Ratio IC50 [7],Structure (SMILES),EC50 [2],EC50 [3],CC50 at 120 h [4]
0.72 µM,–,–,–,Nc1ccc(S(=O)(=O)N2CCN(C(=O)c3cc(O)c(O)c(O)c3)CC2)cc1,> 18 µM,> 18 µM,18 µM
0.56 µM,–,–,–,Nc1ccc(S(=O)(=O)N2CCN(C(=O)c3cc(O)c(O)c(O)c3)CC2C(=O)Nc2ccccc2)cc1 (centres undefined),> 19.1 µM,> 19.1 µM,19.1 µM
0.41 µM,–,–,–,N#Cc1ccc(S(=O)(=O)N2CCN(C(=O)c3cc(O)c(O)c(O)c3)C(C(=O)NCc3ccc(-c4ccccc4)cc3)C2)cc1 (centres undefined),> 7.9 µM,> 7.9 µM,7.9 µM
0.34 µM,–,–,–,Nc1ccc(S(=O)(=O)N2CCN(C(=O)c3cc(O)c(O)c(O)c3)CC2C(=O)NCc2ccc(-c3ccccc3)cc2)cc1 (centres undefined),> 18.3 µM,> 18.3 µM,18.3 µM
0.33 µM,–,–,–,Nc1ccc(S(=O)(=O)N2CCN(C(=O)c3cc(O)c(O)c(O)c3)C(C(=O)Nc3ccccc3)C2)cc1 (centres undefined),> 50.8 µM,> 50.8 µM,50.8 µM
0.31 µM,–,–,–,CN(C(=O)C1CN(S(=O)(=O)c2ccc(C#N)cc2)CCN1C(=O)c1cc(O)c(O)c(O)c1)c1ccccc1 (centres undefined),> 113 µM,> 113 µM,113 µM
0.27 µM,–,–,–,COc1ccc(CNC(=O)C2CN(S(=O)(=O)c3ccc(N)cc3)CCN2C(=O)c2cc(O)c(O)c(O)c2)cc1 (centres undefined),> 21.7 µM,> 21.7 µM,21.7 µM
0.22 µM,–,–,–,Nc1ccc(S(=O)(=O)N2CCN(C(=O)c3cc(O)c(O)c(O)c3)CC2C(=O)NCc2cccc3ccccc23)cc1 (centres undefined),> 21.6 µM,> 21.6 µM,21.6 µM
0.18 µM,–,–,–,CC(C)(C)OC(=O)N1CCC2(CCN(C(=O)C3CN(C(=O)c4cc(O)c(O)c(O)c4)CCN3S(=O)(=O)c3ccc(N)cc3)C2)C1 (centres undefined),> 42 µM,> 42 µM,42 µM
0.14 µM,–,–,–,COc1ccc(CNC(=O)C2CN(C(=O)c3cc(O)c(O)c(O)c3)CCN2S(=O)(=O)c2ccc(N)cc2)cc1 (centres undefined),> 20.4 µM,> 20.4 µM,20.4 µM
0.13 µM,–,–,–,Nc1ccc(S(=O)(=O)N2CCN(C(=O)c3cc(O)c(O)c(O)c3)CC2C(=O)NCc2ccco2)cc1 (centres undefined),> 25.3 µM,> 25.3 µM,25.3 µM
0.067 µM,–,0.2 ×10⁻⁶ cm/s,30,Nc1ccc(S(=O)(=O)N2CCN(C(=O)c3cc(O)c(O)c(O)c3)C(C(=O)NCc3ccco3)C2)cc1 (centres undefined),> 24.7 µM,> 24.7 µM,24.7 µM
